According to US20240197709A1, “POTENTIATING THE TUMOR-SELECTIVE EFFECTS OF NQO1-BIOACTIVATABLE AGENT BY USE OF CMET INHIBITOR” (The Trustees of Indiana University, priority 2022, published 2024):

Columns and labels:
[1] = test system: Capan2 shMET; experiment: long-term survival (DNA assay), Capan2 shSCR versus shMET; assay type: cell-based
Excerpt: FIG. 1-1R. Graph showing relative long-term survival in isogenic Capan2 shSCR versus shMET cell lines using the DNA assay.
Dicoumarol (DIC) is a well-established NQO1 inhibitor (Asher, et al., Biochemistry 2006, 45(20), 6372-8; Motea, et al., Clin Cancer Res 2019, 25(8), 2601-2609; Huang, et al., Cancer Cell 2016, 30(6), 940-952).

[2] = test system: A549 shMET; experiment: migration and invasion, A549 shSCR versus shMET; assay type: cell-based; conditions: β-lap 3 μM 2 h, p<0.001
Method: FIG. 4H. Representative images of A549 shSCR versus shMET migration at 16 h following treatments with DMSO-treated control and β-Lap (3 μM) for 2 h. Scale bars, 50 μm;
FIG. 4I. Bar graph showing quantification of cell migration expressed as a percent of control (vehicle). Quantitative data were shown as the mean±SEM. **** p<0.0001, ** p<0.01, *p<0.05, ns=not significant.
FIG. 4J. Representative images of A549 shSCR versus shMET invasion using a matrigel-coated transwell system at 16 h following treatments with DMSO-treated control and β-Lap (3 μM) for 2 h. Scale bars, 50 μm;
FIG. 4K. Bar graph showing quantification of cell invasion expressed as a percent of control (vehicle). Quantitative data were shown as the mean±SEM. **** p<0.0001, ** p<0.01, *p<0.05, ns=not significant.
FIG. 4-1B. Bar graph illustrating percentage wound closure at indicated time points in A549 shSCR versus shMET treated with vehicle control or non-lethal β-lap for 2 h. Two-way ANOVA was used for statistical analyses; * p<0.05.
(§1) Overexpression of cMET in many cancers, including NSCLC and PDAC, is known to enhance cancer cell mobility, migration, and invasion (Spina, et al., Biomedicines 2015, 3(1), 71-88). […]

[3] = test system: Vimentin protein expression in A549 shSCR; experiment: Western blot of Vimentin, A549 shSCR versus shMET; assay type: cell-based; conditions: sub-lethal β-lap 2 h, further reduced in shMET
Method: FIG. 4-1C. Western blot analysis of Vimentin protein expression in A549 shSCR versus shMET treated with vehicle control or non-lethal β-lap doses for 2 h.
Overexpression of cMET in many cancers, including NSCLC and PDAC, is known to enhance cancer cell mobility, migration, and invasion (Spina, et al., Biomedicines 2015, 3(1), 71-88). […] Thus, we investigated whether treatment with non-lethal β-lap in combination with inhibition of cMET activity (i.e., via pharmacological or genetic interventions) can target and mitigate cancer invasion or migration using Boyden chamber (Chen, Methods Mol Biol 2005, 294, 15-22; Eccles, et al., Biotechnol Annu Rev 2005, 11, 391-421) and wound-healing (Liang, et al., Nat Protoc 2007, 2(2), 329-33) assays. […] Likewise, we noted a decrease in the expression of a transcription factor that promotes invasion and migration, Twist (Khan et al., Tumour Biol 2013, 34(5), 2497-506), with the combination treatment relative to vehicle control (FIG. 4E, G). Addition of DIC to the combination treatment reverted Twist and E-cadherin protein expression to almost similar level as vehicle-treated control. shRNA mediated knockdown of cMET expression in A549 and Capan2 decreased their migratory and invasive phenotypes relative to their corresponding shSCR controls, which is consistent with the canonical role of cMET in invasive cancers. […]

[4] = test system: Capan2 PDAC shMET cells; experiment: transwell migration and invasion, Capan2 shSCR vs shMET; assay type: cell-based; conditions: β-lap 2 μM 2 h, versus shSCR control
Method: FIG. 4-1D. Representative images from in vitro transwell migration assay comparing Capan2 shSCR and Capan2 shMET treated with vehicle control or sub-lethal β-lap (2 μM, 2 h). Images were taken at 16 h post-treatment.
FIG. 4-1E. Bar graph illustrating the percentage of Capan2 shSCR vs shMET PDAC cell migration at 16 h post-treatment with vehicle or sub-lethal β-lap (2 μM, 2 h). Two-way ANOVA was used for statistical analyses; * p<0.05; **** p<0.0001.
FIG. 4-1F. Representative images from in vitro transwell invasion assay comparing Capan2 shSCR and Capan-2 shMET treated with vehicle control or sub-lethal β-lap (2 μM, 2 h). Images were taken at 16 h post-treatment.
FIG. 4-1G. Bar graph illustrating the percentage of Capan2 shSCR vs shMET PDAC cell invasion at 16 h post-treatment with vehicle or sub-lethal β-lap (2 μM, 2 h). Two-way ANOVA was used for statistical analyses; * p<0.05; **** p<0.0001.
as §1

[5] = test system: Capan2-mCherry microtumor; experiment: 3D spheroid co-culture, tumor cells; assay type: cell-based; conditions: 3D co-culture with NIH3T3-GFP; crizotinib 2 μM, β-lap 2 μM or 4 μM
Method: FIG. 5D. Top Inset: Representative brightfield, green (NIH3T3-GFP), red (Capan2-mCherry), and merged images of 3D spheroid co-culture of Capan2-mCherry (cancer cells) and NIH3T3-GFP (normal cells). 3D co-cultures were exposed to specified treatment conditions and imaged at indicated times to monitor drug response. Scale bar=250 μm. Untreated NIH3T3-GFP 3D spheroid culture by itself (imaged at indicated times) was added for reference.
FIG. 5E. Bar graph of Capan2-mCherry 3D spheroid microtumor growth at specified treatment conditions over time. Asterisk (*) indicates synergistic response in the combination treatment compared to the corresponding individual treatments alone.
Next, we investigated the tumor-selectivity and efficacy of our combination treatment strategy using 3D co-culture spheroids of Capan2 PDAC (permanently labelled with mCherry) and NIH3T3 mouse embryonic fibroblast cells (permanently labelled with GFP) to mimic physiological cell-cell and cell-environment interactions during treatment. […] These are consistent with patient data comparing associated normal tissues versus tumors in pancreas (FIGS. 1-1B, 1-1G) and lungs (FIGS. 1A, 1-1B, 1-1H). Using confocal fluorescent microscopy, we noted that NIH3T3-GFP fibroblast cells were surrounding the Capan2-mCherry PDAC cells in the 3D spheroid co-culture (FIG. 5D).

[6] = β-lap monotherapy; cited from earlier work

## CC1(C)CCC2=C(O1)c1ccccc1C(=O)C2=O [β-lap, β-Lapachone]
[1]
  sensitivity to β-lap after stable knockdown of cMET: enhanced Capan2 sensitivity
[2]
  cell invasion: significantly reduces
  cell migration: significantly reduces
[3]
  Vimentin expression: decreased Vimentin expression
[4]
  cell invasion: significantly reduced
  cell migration: significantly reduced
[5]
  Capan2-mCherry microtumor growth: very little effect on tumor growth
[6]
  toxicity at high doses in clinical trials: methemoglobinemia and haemolysis
